Laboratory results: patent US20210079015A1, “NOVEL DIHYDROISOXAZOLE COMPOUNDS AND THEIR USE FOR THE TREATMENT OF HEPATITIS B” (Novartis AG, priority 2017, published 2021)

Tested on: HBV
Assay: Anti-HBV assay (inhibition of HBV replication in HepG2.cl42 cells, HBV DNA by qPCR)
Format: cell-based, HBV ayw strain
Settings: Hepatitis B virus, 96 h, treated four days, HBV DNA quantified by real time PCR, read-out: HBsAg EC50

Row | Structure (SMILES) | EC50 [µM]
1 | C[C@H]1Cc2noc(N3CCCOC3=O)c2CN1C(=O)Nc1cc(F)c(F)c(C(F)F)c1 [Compound 51, (S)—N-(3-(difluoromethyl)-4,5-difluorophenyl)-6-methyl-3-(2-oxo-1,3-oxazinan-3-yl)-6,7-dihydroisoxazolo[4,3-c]pyridine-5(4H)-carboxamide] | < 0.1
2 | C[C@H]1Cc2noc(N3CCOC3=O)c2CN1C(=O)Nc1cc(F)c(F)c(F)c1 [Compound 55, (S)-6-methyl-3-(2-oxooxazolidin-3-yl)-N-(3,4,5-trifluorophenyl)-6,7-dihydroisoxazolo[4,3-c]pyridine-5(4H)-carboxamide] | 0.1 to 1
3 | Cc1nc(-c2onc3c2[C@H](C)N(C(=O)Nc2cc(F)c(F)c(F)c2)CC3)cs1 [Compound 30, (S)-4-methyl-3-(2-methylthiazol-4-yl)-N-(3,4,5-trifluorophenyl)-6,7-dihydroisoxazolo[4,3-c]pyridine-5(4H)-carboxamide] | ≥ 1
4 | C[C@H]1Cc2noc(-c3ccc(Cl)cc3)c2CN1C(=O)Nc1cc(F)c(F)c(F)c1 [Compound 18] | 0.1 to 1
5 | CC1Cc2noc(-c3ccc(F)cc3F)c2CN1C(=O)Nc1cc(F)c(F)c(F)c1 (stereo not shown) [Compound 3.1, 3-(2,4-difluorophenyl)-6-methyl-N-(3,4,5-trifluorophenyl)-6,7-dihydroisoxazolo[4,3-c]pyridine-5(4H)-carboxamide] | 0.1 to 1
6 | C[C@H]1Cc2noc(-c3ccc(OC(F)(F)F)cc3)c2CN1C(=O)Nc1cc(F)c(F)c(F)c1 [Compound 16] | 0.1 to 1
7 | C[C@H]1Cc2noc(N3CCOCC3)c2CN1C(=O)Nc1cc(F)c(F)c(F)c1 [Compound 59, (S)-6-methyl-3-morpholino-N-(3,4,5-trifluorophenyl)-6,7-dihydroisoxazolo[4,3-c]pyridine-5(4H)-carboxamide] | ≥ 1
8 | Cc1nc(-c2onc3c2CN(C(=O)Nc2cc(F)c(F)c(F)c2)[C@@H](C)C3)cs1 [Compound 29, (S)-6-methyl-3-(2-methylthiazol-4-yl)-N-(3,4,5-trifluorophenyl)-6,7-dihydroisoxazolo[4,3-c]pyridine-5(4H)-carboxamide] | 0.1 to 1
9 | C[C@H]1c2c(noc2-c2ccc(F)cn2)CCN1C(=O)Nc1cc(F)c(F)c(F)c1 [Compound 28, (S)-3-(5-fluoropyridin-2-yl)-4-methyl-N-(3,4,5-trifluorophenyl)-6,7-dihydroisoxazolo[4,3-c]pyridine-5(4H)-carboxamide] | 0.1 to 1
10 | C[C@H]1Cc2noc(N3CCCCC3=O)c2CN1C(=O)Nc1ccccc1 [Compound 54, (S)-6-methyl-3-(2-oxopiperidin-1-yl)-N-phenyl-6,7-dihydroisoxazolo[4,3-c]pyridine-5(4H)-carboxamide] | 0.1 to 1
11 | Cc1nc(-c2onc3c2[C@H](C)N(C(=O)Nc2cc(F)c(F)c(F)c2)CC3)c(C)o1 [Compound 40] | ≥ 1
12 | CC1c2c(noc2-c2ccc(F)cc2F)CCN1C(=O)Nc1cc(F)c(F)c(F)c1 (stereo not shown) [Compound 4.1, 3-(2,4-difluorophenyl)-4-methyl-N-(3,4,5-trifluorophenyl)-6,7-dihydroisoxazolo[4,3-c]pyridine-5(4H)-carboxamide] | ≥ 1
13 | C[C@H]1Cc2noc(N3C(=O)CCC3=O)c2CN1C(=O)Nc1cc(F)c(F)c(F)c1 [Compound 60, (S)-3-(2,5-dioxopyrrolidin-1-yl)-6-methyl-N-(3,4,5-trifluorophenyl)-6,7-dihydroisoxazolo[4,3-c]pyridine-5(4H)-carboxamide] | ≥ 1
14 | Cc1cccc(-c2onc3c2CN(C(=O)Nc2cc(F)c(F)c(F)c2)[C@@H](C)C3)c1 [Compound 23] | ≥ 1
15 | C[C@H]1Cc2noc(-c3ccc(C#N)cc3)c2CN1C(=O)Nc1cc(F)c(F)c(F)c1 [Compound 19] | 0.1 to 1
16 | C[C@H]1Cc2noc(-c3ccn(C)n3)c2CN1C(=O)Nc1cc(F)c(F)c(F)c1 [Compound 33] | < 0.1
17 | C[C@H]1Cc2noc(N3CCCC3=O)c2CN1C(=O)Nc1ccc(F)c(C#N)c1 [Compound 53, (S)—N-(3-cyano-4-fluorophenyl)-6-methyl-3-(2-oxopyrrolidin-1-yl)-6,7-dihydroisoxazolo[4,3-c]pyridine-5(4H)-carboxamide] | < 0.1
18 | Cc1nc(-c2onc3c2[C@H](C)N(C(=O)Nc2cc(F)c(F)c(F)c2)CC3)no1 [Compound 42] | 0.1 to 1
19 | COc1ccc(-c2onc3c2CN(C(=O)Nc2cc(F)c(F)c(F)c2)[C@@H](C)C3)cc1 [Compound 9, (S)-3-(4-methoxyphenyl)-6-methyl-N-(3,4,5-trifluorophenyl)-6,7-dihydroisoxazolo[4,3-c]pyridine-5(4H)-carboxamide] | < 0.1
20 | C[C@H]1Cc2noc(N3CCCCC3=O)c2CN1C(=O)Nc1cc(F)c(F)c(F)c1 [Compound 46, (S)-6-methyl-3-(2-oxopiperidin-1-yl)-N-(3,4,5-trifluorophenyl)-6,7-dihydroisoxazolo[4,3-c]pyridine-5(4H)-carboxamide] | < 0.1
21 | Cc1nc(-c2onc3c2CN(C(=O)Nc2cc(F)c(F)c(F)c2)[C@@H](C)C3)c(C)o1 [Compound 39] | 0.1 to 1
22 | Cc1nc(-c2onc3c2[C@H](C)N(C(=O)Nc2cc(F)c(F)c(F)c2)CC3)co1 [Compound 36] | ≥ 1
